Each structure is given as a SMILES string. “Also recorded” adds a separate entry of the source.

Series [1] deals with hypothalamic neural precursor cells. Put plainly: Hypothalamic neurogenesis (BrdU). Format: in vivo, mouse (C57BL/6). Conditions: 10 mg/kg twice daily i.p. Here is the method: FIG. 27. Example 45 Compound (P7C3) Augments Hypothalamic Neurogenesis. Administration of P7C3 for a one month period of time augments proliferation of hypothalamic neural precursor cells (shown in red) in the arcuate nucleus (ARC), dorsomedial hypothalamus (DMH) and ventralmedial hypothalamus (VMH). Micrographs shown are representative of staining from every third section throughout the hypothalamus in 4-6 mice for each treatment group.
It was evaluated whether P7C3 might augment hypothalamic neurogenesis by administering either vehicle or P7C3 (10 mg/kg twice daily, i.p.) to nine week old male C57BL/6 mice, starting two days before implantation of 7 day Alzet osmotic minipumps (model 1007d) loaded with BrdU (1 mg/kg). Pumps were connected to a cannula that delivered BrdU at a constant rate into the left lateral ventricle for the seven day period, during which time animals continued to receive either vehicle or P7C3. Pumps were surgically removed at the conclusion of their 7 day operating period, and mice were allowed to survive for 4 more weeks, during which time they continued to receive either vehicle or P7C3. At the end of the 4 week period, mice were deeply anesthetized with intraperitoneal (i.p.) injection of mouse anesthetic cocktail and transcardially perfused with 4% paraformaldehyde (PFA) in phosphate buffered saline (pH 7.4). […]

For series [2], the system named is R6/2 transgenic mice. Put plainly: R6/2 model of Huntington's disease. The format is in vivo, mouse. Here is the method: FIG. 26A and FIG. 26B. Example 45 Compound (P7C3) Provides Therapeutic Benefit in Animal Model of Huntington's Disease. 40 female R6/2 mice were included in each of VEH (vehicle) and P7C3 (10 mg/kg P7C3 i.p. twice daily) groups, and treatment was begun at 6 weeks of age. […] All measurements were conducted blind to genotype and treatment group.
In one hypothesis, P7C3 (and its derivates) may enhance the formation of neurons in the mature hippocampus by preventing death rather than promoting proliferation of these cells. As such, P7C3 is “proneurogenic” by virtue of its neuroprotective activity. It is also possible that P7C3 (and its derivates) prevents cell death and promotes cell proliferation. It was evaluated whether P7C3 might provide therapeutic benefit in R6/2 mice. […] General condition score was determined by a 3 point scoring system that was conducted blind to genotype and treatment group (score of 0=fur looks groomed, normal posture (no hunch), clear eyes, alert; score of 1=fur beginning to stick up, slight hunch; score of 2=piloerection (fur sticking up), unkempt fur, hunch in back or neck area, crusty eyes). Death was monitored twice daily, and defined as either when animals were found dead, or when they were unable to right themselves after being placed on their backs with movement subsequently initiated by gentle prodding for 30 seconds. […]

Series [3] relates to dentate gyrus of NPAS3-deficient mice. The experiment in a line: NPAS3-deficient mice: neurogenesis, apoptosis, morphology and electrophysiology of the dentate gyrus. Format: in vivo, mouse (npas3−/−). Here is the method: FIG. 14: Example 45 Compound has pro-neurogenic or neuroprotective efficacy in the dentate gyrus of NPAS3-deficient animals. Six 12 week old npas3^−/− mice were orally administered vehicle or Example 45 Compound (20 mg/kg/d) for 12 days, and also injected daily with BrdU (50 mg/kg). At the end of day 12, mice were sacrificed and tissue was stained for BrdU and doublecortin (DCX).
Apoptosis in NPAS3-deficient animals was inhibited by treatment with Example 45 Compound (20 mg/kg/d, p.o., for 12 days), whereas analogous treatment with vehicle alone had no effect. Images shown are representative of 10-12 sections evaluated per animal, with 3-5 […] male NPAS3-deficient mice per group.
Armed with these genotype- and region-specific deficits in both neuron morphology and electrophysiological activity, whether prolonged administration of Example 45 Compound might favorably repair either deficit in NPAS3-deficient animals was tested. […] Following oral gavage of pregnant female mice, 14 day embryos were recovered, dissected and processed by acetonitrile:water extraction so that Example 45 Compound levels could be measured in the embryonic brain. Daily administration of 20 mg/kg of Example 45 Compound to pregnant females yielded appreciable levels of the compound in the brain tissue of developing embryos. It was similarly observed that oral administration of the compound to lactating females led to delivery of Example 45 Compound to the brain tissue of weanling pups. […] Finally, it was observed that daily IP administration of Example 45 Compound to weaned pups at 20 mg/kg was sufficient to yield brain levels of Example 45 Compound at or above the level required to enhance adult neurogenesis.
Female mice heterozygous at the NPAS3 locus were mated to heterozygous males. Two weeks post-mating, females were given a daily oral gavage of either 20 mg/kg of Example 45 Compound or vehicle-only formula. Dosing was continued throughout the last trimester of pregnancy, as well as the two week post-natal period of lactation. Following weaning, pups were given a daily IP dose of either 20 mg/kg Example 45 Compound or vehicle control. At about 7 weeks of age, mice were switched to oral gavage delivery of the same dose of Example 45 Compound. When mice were 3 months of age they were sacrificed and brain tissue was dissected and subjected to either Golgi-Cox staining or electrophysiological recording. […] The corresponding electrophysiological deficit in CA1 region of the hippocampus, however, was not affected (FIG. 13B), underscoring the specificity of Example 45 Compound to improving functioning of the dentate gyrus in this animal model.
Recognizing that the reduced thickness of the granular layer of the dentate gyrus in NPAS3-deficient animals could be attributed to elevated levels of apoptosis of newborn hippocampal neural precursor cells, the effect of Example 45 Compound treatment on apoptosis in the hippocampus of NPAS3-deficient animals was examined through immunohistochemical staining of cleaved caspase 3 (CCSP3). […] It is thereby proposed that Example 45 Compound facilitated repair of the granular layer of the dentate gyrus in NPAS3-deficient mice by ameliorating a genotype-specific exacerbation of programmed cell death.

On to `OC(CNc1ccccc1)Cn1c2ccc(Br)cc2c2cc(Br)ccc21` (stereo not shown) [Example P7C3], for which the “hypothalamic neurogenesis (BrdU positive staining)” value in series [1] is on record as “markedly enhances hypothalamic neurogenesis”. In addition, the “survival of R6/2 mice” value in series [2] (10 mg/kg i.p. twice daily from 6 weeks of age) is “delays animal death by about three weeks”. For the same compound, the general condition score result in series [2] (at 14 weeks of age) was “improved general condition score and appearance”.

In the case of `OC(CNc1ccccc1)Cn1c2ccc(Br)cc2c2cc(Br)ccc21` (stereo not shown) [Example 45 Compound], the “brain level in embryos and weanling pups” value in series [3] (20 mg/kg daily oral to pregnant or lactating females, LC/MS) is ≥ 1350 nM. In series [3] (20 mg/kg/d from embryonic day 14 until 3 months of age, npas3−/− mice), the “thickness of hippocampal subfields” value was “selectively increased the thickness of the dentate gyrus granular cell layer”. Besides, the “cleaved caspase 3 (CCSP3) staining, apoptosis in the dentate gyrus” value in series [3] (20 mg/kg/d p.o. for 12 days, NPAS3-deficient mice) is given as “significantly reduced CCSP3 staining in the dentate gyrus; also recorded: statistically significant reduction in CCSP3 staining; also recorded: inhibited”. Also, in series [3] (extended daily treatment 20 mg/kg/d, npas3−/− mice), the “dendritic arborization of dentate gyrus granular neurons (Golgi-Cox)” value is given as “robustly repaired morphological deficits in the dendritic branching; also recorded: enhanced dendritic arborization”. For the same compound, in series [3] (extended treatment, npas3−/− mice), the “synaptic responses (fEPSP) in hippocampal slices” value is recorded as “normalized synaptic responses in the dentate gyrus but not the CA1 region”. Besides, the “increase of neurogenesis (BrdU) in npas3−/− mice” value in series [3] (oral 20 mg/kg/d for 12 days) is on record as “roughly 4 fold”. The “health of treated animals” value in series [3] (prolonged administration 20 mg/kg, relative to vehicle-only controls) is listed as “did not affect any aspect of the health of mothers, embryos, weanlings or young adult mice”.

The values above are taken from US10183011B2, “Anti-depression compounds” (Board of Regents of the University of Texas System, priority 2009, dated 2019).
